According to the supplement of paper PMC4862054:
Where “and” joins values, the source holds several entries; their conditions need not be identical. Equal values may be shown once.

Test system: Hs578T
Assay: normalised viability (% of control), CellTiter-Blue; higher = more viable cells (about 100 = DMSO control)
Settings: 100 nM; incubation time: 72 h
Method: (§1)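 DSRT, CellTiter-Blue viability, 72 h incubation. Signal is normalised to DMSO and benzethonium chloride controls. Value is the normalised response at dose 3.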

Q: How did the normalised viability turn out when `C=CCN(/C=C1/C(=O)O[C@H](COC)[C@@]2(C)C1=C(O)C(=O)C1=C2[C@H](OC(C)=O)C[C@]2(C)C(=O)CC[C@@H]12)CC=C` [PX-866] was run?
A: Its normalised viability is 81%.

Q: `CC[C@H](CO)Nc1nc(NCc2ccccc2)c2ncn(C(C)C)c2n1` [Roscovitine] was tested. Which normalised viability did it give?
A: The normalised viability was 91.1%.

Q: Which normalised viability does the source give for `O=C(CCCCCCC(=O)Nc1ccccc1)NO` [Vorinostat] here?
A: The normalised viability was 74.4% and 83.6%.

Test system: HCC1937
Assay: as above
Settings: 10 nM; incubation time: 72 h
Method: as §1

Q: How did the normalised viability turn out when `CCNC(=O)c1noc(-c2cc(C(C)C)c(O)cc2O)c1-c1ccc(CN2CCOCC2)cc1` [NVP-AUY922] was run?
A: The normalised viability was 37.8%.

Same assay, conditions: 100 nM; incubation time: 72 h

Q: Which normalised viability does the source give for `C=CCn1c(=O)c2cnc(Nc3ccc(N4CCN(C)CC4)cc3)nc2n1-c1cccc(C(C)(C)O)n1` [MK1775] here?
A: The normalised viability was 78.2%.

Q: Which normalised viability does the source give for `CN(Cc1cnc2nc(N)nc(N)c2n1)c1ccc(C(=O)N[C@@H](CCC(=O)O)C(=O)O)cc1` [Methotrexate] here?
A: The normalised viability was 96.2%.

Q: Which normalised viability does the source give for `COc1c2occc2cc2ccc(=O)oc12` [Methoxsalen] here?
A: Its normalised viability is 104%.

Q: With `CO[C@@H]1[C@H](N(C)C(=O)c2ccccc2)C[C@H]2O[C@]1(C)n1c3ccccc3c3c4c(c5c6ccccc6n2c5c31)C(=O)NC4` [Midostaurin] as the compound, how does the normalised viability read?
A: Its normalised viability is 82.8%.

Q: Which normalised viability does the source give for `CO[C@@]12[C@H](COC(N)=O)C3=C(C(=O)C(C)=C(N)C3=O)N1C[C@@H]1N[C@@H]12` [Mitomycin C] here?
A: Its normalised viability is 69.2%.

Q: With `CC1(C)CCC(c2ccc(Cl)cc2)=C(CN2CCN(c3ccc(C(=O)NS(=O)(=O)c4ccc(N[C@H](CCN5CCOCC5)CSc5ccccc5)c(S(=O)(=O)C(F)(F)F)c4)cc3)CC2)C1` [Navitoclax] as the compound, how does the normalised viability read?
A: The normalised viability was 96.3%.

Q: How did the normalised viability turn out when `Cc1cn(-c2cc(NC(=O)c3ccc(C)c(Nc4nccc(-c5cccnc5)n4)c3)cc(C(F)(F)F)c2)cn1` [Nilotinib] was run?
A: Its normalised viability is 90.7% and 85.8%.

Q: With `C=CCN(/C=C1/C(=O)O[C@H](COC)[C@@]2(C)C1=C(O)C(=O)C1=C2[C@H](OC(C)=O)C[C@]2(C)C(=O)CC[C@@H]12)CC=C` [PX-866] as the compound, how does the normalised viability read?
A: The normalised viability was 99%.

Q: `CC[C@H](CO)Nc1nc(NCc2ccccc2)c2ncn(C(C)C)c2n1` [Roscovitine] was tested. Which normalised viability did it give?
A: The normalised viability was 97.3%.

Q: How did the normalised viability turn out when `O=C(CCCCCCC(=O)Nc1ccccc1)NO` [Vorinostat] was run?
A: The normalised viability was 98.6% and 84.2%.

Test system: CAL-51
Assay: as above
Settings: 1 nM; incubation time: 72 h
Method: as §1

Q: For `CCNC(=O)c1noc(-c2cc(C(C)C)c(O)cc2O)c1-c1ccc(CN2CCOCC2)cc1` [NVP-AUY922], which normalised viability is on record?
A: The normalised viability was 102%.

Same assay, conditions: 10 nM; incubation time: 72 h

Q: For `C=CCn1c(=O)c2cnc(Nc3ccc(N4CCN(C)CC4)cc3)nc2n1-c1cccc(C(C)(C)O)n1` [MK1775], which normalised viability is on record?
A: Its normalised viability is 94.1%.

Q: For `CN(Cc1cnc2nc(N)nc(N)c2n1)c1ccc(C(=O)N[C@@H](CCC(=O)O)C(=O)O)cc1` [Methotrexate], which normalised viability is on record?
A: Its normalised viability is 107%.

Q: With `COc1c2occc2cc2ccc(=O)oc12` [Methoxsalen] as the compound, how does the normalised viability read?
A: Its normalised viability is 105%.

Q: How did the normalised viability turn out when `CO[C@@H]1[C@H](N(C)C(=O)c2ccccc2)C[C@H]2O[C@]1(C)n1c3ccccc3c3c4c(c5c6ccccc6n2c5c31)C(=O)NC4` [Midostaurin] was run?
A: Its normalised viability is 91.9%.

Q: With `CO[C@@]12[C@H](COC(N)=O)C3=C(C(=O)C(C)=C(N)C3=O)N1C[C@@H]1N[C@@H]12` [Mitomycin C] as the compound, how does the normalised viability read?
A: The normalised viability was 108%.

Q: How did the normalised viability turn out when `CC1(C)CCC(c2ccc(Cl)cc2)=C(CN2CCN(c3ccc(C(=O)NS(=O)(=O)c4ccc(N[C@H](CCN5CCOCC5)CSc5ccccc5)c(S(=O)(=O)C(F)(F)F)c4)cc3)CC2)C1` [Navitoclax] was run?
A: The normalised viability was 105%.

Q: For `Cc1cn(-c2cc(NC(=O)c3ccc(C)c(Nc4nccc(-c5cccnc5)n4)c3)cc(C(F)(F)F)c2)cn1` [Nilotinib], which normalised viability is on record?
A: The normalised viability was 109% and 111%.

Q: `C=CCN(/C=C1/C(=O)O[C@H](COC)[C@@]2(C)C1=C(O)C(=O)C1=C2[C@H](OC(C)=O)C[C@]2(C)C(=O)CC[C@@H]12)CC=C` [PX-866] was tested. Which normalised viability did it give?
A: The normalised viability was 110%.

Q: `CC[C@H](CO)Nc1nc(NCc2ccccc2)c2ncn(C(C)C)c2n1` [Roscovitine] was tested. Which normalised viability did it give?
A: The normalised viability was 104%.

Q: Which normalised viability does the source give for `O=C(CCCCCCC(=O)Nc1ccccc1)NO` [Vorinostat] here?
A: The normalised viability was 107% and 93.5%.

Test system: MDA-MB-453
Assay: as above
Settings: 1 nM; incubation time: 72 h
Method: as §1

Q: How did the normalised viability turn out when `CCNC(=O)c1noc(-c2cc(C(C)C)c(O)cc2O)c1-c1ccc(CN2CCOCC2)cc1` [NVP-AUY922] was run?
A: Its normalised viability is 119%.

Same assay, conditions: 10 nM; incubation time: 72 h

Q: With `C=CCn1c(=O)c2cnc(Nc3ccc(N4CCN(C)CC4)cc3)nc2n1-c1cccc(C(C)(C)O)n1` [MK1775] as the compound, how does the normalised viability read?
A: Its normalised viability is 100%.

Q: For `CN(Cc1cnc2nc(N)nc(N)c2n1)c1ccc(C(=O)N[C@@H](CCC(=O)O)C(=O)O)cc1` [Methotrexate], which normalised viability is on record?
A: Its normalised viability is 122%.

Q: How did the normalised viability turn out when `COc1c2occc2cc2ccc(=O)oc12` [Methoxsalen] was run?
A: The normalised viability was 95.2%.

Q: How did the normalised viability turn out when `CO[C@@H]1[C@H](N(C)C(=O)c2ccccc2)C[C@H]2O[C@]1(C)n1c3ccccc3c3c4c(c5c6ccccc6n2c5c31)C(=O)NC4` [Midostaurin] was run?
A: Its normalised viability is 85.7%.

Q: Which normalised viability does the source give for `CO[C@@]12[C@H](COC(N)=O)C3=C(C(=O)C(C)=C(N)C3=O)N1C[C@@H]1N[C@@H]12` [Mitomycin C] here?
A: Its normalised viability is 87.6%.

Q: Which normalised viability does the source give for `CC1(C)CCC(c2ccc(Cl)cc2)=C(CN2CCN(c3ccc(C(=O)NS(=O)(=O)c4ccc(N[C@H](CCN5CCOCC5)CSc5ccccc5)c(S(=O)(=O)C(F)(F)F)c4)cc3)CC2)C1` [Navitoclax] here?
A: The normalised viability was 84.3%.

Q: With `Cc1cn(-c2cc(NC(=O)c3ccc(C)c(Nc4nccc(-c5cccnc5)n4)c3)cc(C(F)(F)F)c2)cn1` [Nilotinib] as the compound, how does the normalised viability read?
A: Its normalised viability is 94% and 89%.

Q: `C=CCN(/C=C1/C(=O)O[C@H](COC)[C@@]2(C)C1=C(O)C(=O)C1=C2[C@H](OC(C)=O)C[C@]2(C)C(=O)CC[C@@H]12)CC=C` [PX-866] was tested. Which normalised viability did it give?
A: The normalised viability was 99.3%.

Q: With `CC[C@H](CO)Nc1nc(NCc2ccccc2)c2ncn(C(C)C)c2n1` [Roscovitine] as the compound, how does the normalised viability read?
A: Its normalised viability is 106%.

Q: How did the normalised viability turn out when `O=C(CCCCCCC(=O)Nc1ccccc1)NO` [Vorinostat] was run?
A: Its normalised viability is 115% and 97.7%.

Test system: HDQ-P1
Assay: as above
Settings: 1 nM; incubation time: 72 h
Method: as §1

Q: For `CCNC(=O)c1noc(-c2cc(C(C)C)c(O)cc2O)c1-c1ccc(CN2CCOCC2)cc1` [NVP-AUY922], which normalised viability is on record?
A: The normalised viability was 132%.

Same assay, conditions: 10 nM; incubation time: 72 h

Q: With `C=CCn1c(=O)c2cnc(Nc3ccc(N4CCN(C)CC4)cc3)nc2n1-c1cccc(C(C)(C)O)n1` [MK1775] as the compound, how does the normalised viability read?
A: Its normalised viability is 114%.

Q: `CN(Cc1cnc2nc(N)nc(N)c2n1)c1ccc(C(=O)N[C@@H](CCC(=O)O)C(=O)O)cc1` [Methotrexate] was tested. Which normalised viability did it give?
A: Its normalised viability is 95.7%.

Q: `COc1c2occc2cc2ccc(=O)oc12` [Methoxsalen] was tested. Which normalised viability did it give?
A: Its normalised viability is 99.3%.

Q: Which normalised viability does the source give for `CO[C@@H]1[C@H](N(C)C(=O)c2ccccc2)C[C@H]2O[C@]1(C)n1c3ccccc3c3c4c(c5c6ccccc6n2c5c31)C(=O)NC4` [Midostaurin] here?
A: Its normalised viability is 85.3%.

Q: Which normalised viability does the source give for `CO[C@@]12[C@H](COC(N)=O)C3=C(C(=O)C(C)=C(N)C3=O)N1C[C@@H]1N[C@@H]12` [Mitomycin C] here?
A: The normalised viability was 103%.

Q: `CC1(C)CCC(c2ccc(Cl)cc2)=C(CN2CCN(c3ccc(C(=O)NS(=O)(=O)c4ccc(N[C@H](CCN5CCOCC5)CSc5ccccc5)c(S(=O)(=O)C(F)(F)F)c4)cc3)CC2)C1` [Navitoclax] was tested. Which normalised viability did it give?
A: The normalised viability was 87.4%.

Q: How did the normalised viability turn out when `Cc1cn(-c2cc(NC(=O)c3ccc(C)c(Nc4nccc(-c5cccnc5)n4)c3)cc(C(F)(F)F)c2)cn1` [Nilotinib] was run?
A: The normalised viability was 101% and 85.7%.

Q: Which normalised viability does the source give for `C=CCN(/C=C1/C(=O)O[C@H](COC)[C@@]2(C)C1=C(O)C(=O)C1=C2[C@H](OC(C)=O)C[C@]2(C)C(=O)CC[C@@H]12)CC=C` [PX-866] here?
A: Its normalised viability is 109%.

Q: Which normalised viability does the source give for `CC[C@H](CO)Nc1nc(NCc2ccccc2)c2ncn(C(C)C)c2n1` [Roscovitine] here?
A: The normalised viability was 120%.

Q: `O=C(CCCCCCC(=O)Nc1ccccc1)NO` [Vorinostat] was tested. Which normalised viability did it give?
A: The normalised viability was 113% and 89.2%.

Test system: DU-4475
Assay: as above
Settings: 1 nM; incubation time: 72 h
Method: as §1

Q: Which normalised viability does the source give for `CCNC(=O)c1noc(-c2cc(C(C)C)c(O)cc2O)c1-c1ccc(CN2CCOCC2)cc1` [NVP-AUY922] here?
A: Its normalised viability is 115%.

Same assay, conditions: 10 nM; incubation time: 72 h

Q: Which normalised viability does the source give for `C=CCn1c(=O)c2cnc(Nc3ccc(N4CCN(C)CC4)cc3)nc2n1-c1cccc(C(C)(C)O)n1` [MK1775] here?
A: Its normalised viability is 109%.

Q: Which normalised viability does the source give for `CN(Cc1cnc2nc(N)nc(N)c2n1)c1ccc(C(=O)N[C@@H](CCC(=O)O)C(=O)O)cc1` [Methotrexate] here?
A: Its normalised viability is 122%.

Q: Which normalised viability does the source give for `COc1c2occc2cc2ccc(=O)oc12` [Methoxsalen] here?
A: Its normalised viability is 95.5%.

Q: With `CO[C@@H]1[C@H](N(C)C(=O)c2ccccc2)C[C@H]2O[C@]1(C)n1c3ccccc3c3c4c(c5c6ccccc6n2c5c31)C(=O)NC4` [Midostaurin] as the compound, how does the normalised viability read?
A: Its normalised viability is 103%.
